Key:
Type in all cases: cell-based, human
DR5 = DR5 expression on the cell membrane by flow cytometry, primary AML sample
Jurkat and SKW 6.4 cells = assay: Apoptosis assessment by annexin-V staining, Jurkat and SKW 6.4 cells; conditions: 10-200 nM, 24 hours; more in Jurkat than in SKW 6.4 cells
Procedure: After drug treatments, cells are resuspended in 100 μL of the staining solution containing annexin-V fluorescein and propidium iodide in a HEPES buffer (Annexin-V-FLUOS Staining Kit, Boehringer-Mannheim, and Indianapolis, Ind.). Following incubation at room temperature for 15 minutes, annexin V positive cells are estimated by flow cytometry, as previously described.

p21WAF1 promoter DNA = assay: ChIP assay, p21WAF1 promoter; conditions: Jurkat and SKW 6.4 cells
Procedure: ChIP analysis was performed by a slight modification of a previously described method. Cells are incubated overnight at a density of 0.25×10^8 cells/ ml at 37° C. with 5% CO2. Next day, cells are cultured with 0, 50, 100 or 250 nM of LAQ 824 for 24 hours. Formaldehyde was then added to the cells to a final concentration of 1%, and the cells are gently shaken at room temperature for 10 minutes. Following this, the cells are pelleted, suspended in 1 mL of ice-cold PBS containing protease inhibitors (Complete, Boehringer Mannheim). Cells are again pelleted, re-suspended in 0.5 mL of SDS lysis buffer (1% SDS/1.0 mM EDTA/50 mM Tris.HCl, pH 8.1) and incubated on ice for 20 minutes. Lysates are sonicated with 15-second bursts. Debris was removed from samples by centrifugation for 20 minutes at 15,000×g at 4° C. An aliquot of the chromatin preparation (100 μL) was set aside and designated as Input Fraction. […] Immunoprecipitated DNA (both immunoprecipitation samples and Input) was recovered by phenol/chloroform extraction and ethanol precipitation and analyzed by PCR. […] The optimal reaction conditions for PCR are determined for each primer pair. […] The ratio between the immunoprecipitated DNA and Input DNA was calculated for each treatment and primer set. The fold increases after treatment with LAQ824 was calculated from the indicated ratio.

SMILES: O=C(/C=C/c1ccc(CN(CCO)CCc2c[nH]c3ccccc23)cc1)NO [LAQ824, N-hydroxy-3-[4-[[(2-hydroxyethyl)[2-(1H-indol-3-yl)ethyl]-amino]methyl]phenyl]-2E-2-propenamide]
- DR5 expression on the cell membrane (DR5; 100 nM LAQ824, baseline 17.5%): 33.2 % of cells
- DR5 expression on the cell membrane (DR5; 250 nM LAQ824, baseline 17.5%): 62.4 % of cells
- apoptosis, positive staining for annexin V (Jurkat and SKW 6.4 cells): induces apoptosis in a dose-dependent manner
- association of p21WAF1 promoter DNA with acetylated histones (p21WAF1 promoter DNA): increased

Source: patent US20070258972A1, “Combination of a Histone Deacetylase Inhibitor with a Death Receptor Ligand” (priority 2003, published 2007)
